The source of these data is patent US5464848A, “1,2,4-oxadiazolyl-phenoxyalkylisoxazoles and their use as antiviral agents” (Sterling Winthrop Inc., priority 1993, dated 1995).

This experiment concerns human rhinovirus (HRV) serotypes, panel T. In words: MIC50/MIC80 over panel T of fifteen human rhinovirus serotypes (HeLa cell CPE). In kind it is cell-based. To be noted: for MIC50: minimum concentration required to inhibit 50% of the tested serotypes; for MIC80: minimum concentration required to inhibit 80% of the tested serotypes. As to the method:
They are useful in inhibiting virus replication in vitro and are primarily active against picornaviruses, including enteroviruses, echovirus and coxsackie virus, especially rhinoviruses. […] The test procedure used was as follows: The MIC values were determined by an automated tissue culture infectious dose 50% (TCID-50) assay. HeLa cells in monoloyers in 96-well cluster plates were infected with a dilution of virus which had been shown empirically to produce 80% to 100% cytopathic effect (CPE) in 3 days in the absence of drug. The compound to be tested was serially diluted through 10, 2-fold cycles and added to the infected cells. After a 3 day incubation at 33° C. and 2.5% carbon dioxide, the cells were fixed with a 5% solution of glutaraldehyde followed by staining with a 0.25% solution of crystal violet in water. The plates were then rinsed, dried, and the amount of stain remaining in the well (a measure of intact cells) was quantitated with an optical density reader. The MIC was determined to be the concentration of compound which protected 50% of the cells from virus-induced CPE relative to an untreated virus control.
In the above test procedures, representative compounds of formula I were tested against some the serotypes from either a panel of fifteen human rhinovirus (HRV) serotypes, (noted in the table as panel T) namely, HRV-2, -14, -1A, -1B, -6, -21, -22, -15, -25, -30, -50, -67, -89, -86 and -41 or against some of the serotypes from a panel of 10 human rhinovirus serotypes namely HRV-3, -4, -5, -9, -16, -18, -38, -66, -75 and -61, (noted in the table as panel B) and the MIC value, expressed in micrograms per milliliter ([…]), for each rhinovirus serotype was determined for each virus, example 1e is given as an example of the data. Then MIC50 and MIC80 values, which are the minimum concentrations of the compound required to inhibit 50% and 80%, respectively, of the tested serotypes were determined.
The following Table gives the test results for representative compounds of the invention. The panel of viruses used in the test appears before the MIC80 and MIC50 figure and the number of serotypes which the compound is tested against (N) is indicated after the MIC80 and MIC50 figure.

In brackets after ≈: the same amount, converted by molar mass.

Molecule “5-{3-[4-(5-Trifluoromethyl-1,2,4-oxadiazol-3-yl)2-cyano-6-chlorophenoxy]-propyl}-3-methylisoxazole [Example 62f]” displayed an MIC50 of 0.213 mg/L and an MIC80 of 0.09 mg/L.

`Cc1cc(CCCOc2c(C)cc(-c3noc(C4CC4)n3)cc2C)on1` [Example 4, 5-{3-[4-(5-Cyclopropyl-1,2,4-oxadiazol-3-yl) -2,6-dimethylphenoxy]propyl}-3-methylisoxazole] registered an MIC80 of 0.057 mg/L (≈ 0.161 µM). Besides, under “Human rhinovirus sp., 72 h”, the MIC50 was 3.15 mg/L (≈ 8.9 µM).

`COCc1nc(-c2cc(C)c(OCCCc3cc(C)no3)c(C)c2)no1` [Example 5, 5-{3-[2,6-Dimethyl-4-(5-methoxymethyl-1,2,4-oxadiazol-3-yl)phenoxy]propyl}-3-methylisoxazole] displayed an MIC80 of 0.037 mg/L (≈ 0.104 µM). In addition, where the note is “Human rhinovirus sp., 72 h”, the MIC50 was found to be 0.153 mg/L (≈ 0.428 µM).

`Cc1cc(CCCOc2c(C)cc(-c3noc(CF)n3)cc2C)on1` [Example 6, 5-{3-[2,6-Dimethyl-4-(5-fluoromethyl-1,2,4-oxadiazol-3-yl)phenoxy]propyl}-3-methylisoxazole] registered an MIC80 of 0.046 mg/L (≈ 0.133 µM). Further, under “Human rhinovirus sp., 72 h”, the MIC50 was determined as 0.073 mg/L (≈ 0.211 µM).

Regarding `CCOC(=O)c1nc(-c2cc(C)c(OCCCc3cc(C)no3)c(C)c2)no1` [Example 7, 5-{3-[2,6-Dimethyl-4-(5-ethoxycarbonyl-1,2,4-oxadiazol-3-yl)phenoxy]propyl}-3-methylisoxazole], the MIC80 turned out to be 99 mg/L (≈ 257 µM). Moreover, where the note is “Human rhinovirus sp., 72 h”, the MIC50 was 99 mg/L (≈ 257 µM).

Molecule `Cc1cc(CCCOc2c(C)cc(-c3noc(=O)[nH]3)cc2C)on1` [Example 8, 5-{3-[2,6-Dimethyl-4-(5-oxo-4,5-dihydro-1,2,4-oxadiazol-3-yl)phenoxy]propyl}-3-methylisoxazole] came in with an MIC80 of 99 mg/L (≈ 301 µM). The MIC50 (Human rhinovirus sp., 72 h) came to 99 mg/L (≈ 301 µM).

`CC(=O)OCc1nc(-c2cc(C)c(OCCCc3cc(C)no3)c(C)c2)no1` [Example 9, 5-{3-[2,6-Dimethyl-4-(5-methylcarbonyloxy-methyl-1,2,4-oxadiazol-3-yl)phenoxy]propyl}-3-methylisoxazole] showed an MIC80 of 0.141 mg/L (≈ 0.366 µM). The MIC50 (Human rhinovirus sp., 72 h) came to 0.279 mg/L (≈ 0.724 µM).

In turn, `Cc1cc(CCCOc2c(C)cc(-c3noc(CCl)n3)cc2C)on1` [Example 10, 5-{3-[4-(5-Chloromethyl-1,2,4-oxadiazol-3-yl) -2,6-dimethylphenoxy]propyl}-3-methylisoxazole] displayed an MIC80 of 0.141 mg/L (≈ 0.39 µM). Moreover, the MIC50 (Human rhinovirus sp., 72 h) worked out at 0.279 mg/L (≈ 0.771 µM).

For the molecule `CC(=O)OC(C)c1nc(-c2cc(C)c(OCCCc3cc(C)no3)c(C)c2)no1` (stereo not drawn) [Example 11, 5-{3-[2,6-Dimethyl-4-(5-(1-methylcarbonyloxy-ethyl)-1,2,4-oxadiazol-3-yl)phenoxy]propyl}-3-methylisoxazole], the MIC80 stood at 0.2485 mg/L (≈ 0.622 µM). The molecule further registered an MIC50 (Human rhinovirus sp., 72 h) of 1.98 mg/L (≈ 4.97 µM).

For `Cc1cc(CCCOc2c(C)cc(-c3noc(C(Cl)(Cl)Cl)n3)cc2C)on1` [Example 12, 5-{3-[2,6-Dimethyl-4-(5-trichloromethyl-1,2,4-oxadiazol-3-yl)-phenoxy]propyl}-3-methylisoxazole], the MIC80 was found to be 0.662 mg/L (≈ 1.54 µM). The MIC50 (Human rhinovirus sp., 72 h) was 2.94 mg/L (≈ 6.83 µM).

For the molecule `Cc1cc(CCCOc2c(C)cc(-c3noc(C(Cl)Cl)n3)cc2C)on1` [Example 13, 5-{3-[4-(5-Dichloromethyl-1,2,4-oxadiazol-3-yl)-2,6-dimethyl-phenoxy]propyl}-3-methylisoxazole], the MIC80 came out at 0.145 mg/L (≈ 0.366 µM). For the same molecule, the MIC50 (Human rhinovirus sp., 72 h) came out at 0.266 mg/L (≈ 0.671 µM).

In the case of `Cc1cc(CCCOc2c(C)cc(-c3noc(C(F)F)n3)cc2C)on1` [Example 14, 5-{3-[4-(5-Difluoromethyl-1,2,4-oxadiazol-3-yl)-2,6-dimethyl-phenoxy]propyl}-3-methylisoxazole], the MIC80 was found to be 0.022 mg/L (≈ 0.0605 µM). The molecule also displayed an MIC50 (Human rhinovirus sp., 72 h) of 0.054 mg/L (≈ 0.149 µM).

As for `Cc1cc(CCCOc2c(C)cc(-c3noc(=N)[nH]3)cc2C)on1` [Example 15, 5-{3-[4-(5-Imino-4,5-dihydro-1,2,4-oxadiazol-3-yl)-2,6-dimethylphenoxy]propyl}-3-methylisoxazole], the MIC80 amounted to 99 mg/L (≈ 301 µM). Besides, the MIC50 (Human rhinovirus sp., 72 h) was 99 mg/L (≈ 301 µM).

Regarding `COc1nc(-c2cc(C)c(OCCCc3cc(C)no3)c(C)c2)no1` [Example 16, 5-{3-[2,6-Dimethyl-4-(5-methoxy-1,2,4-oxadiazol-3-yl)phen-oxy]propyl}-3-methylisoxazole], the MIC80 was determined as 0.036 mg/L (≈ 0.105 µM). For the same molecule, under “Human rhinovirus sp., 72 h”, the MIC50 was 0.135 mg/L (≈ 0.393 µM).

Molecule `CCOc1nc(-c2cc(C)c(OCCCc3cc(C)no3)c(C)c2)no1` [Example 17, 5-{3-[2,6-Dimethyl-4-(5-ethoxy-1,2,4-oxadiazol-3-yl)phenoxy]propyl}-3-methylisoxazole] returned an MIC80 of 0.055 mg/L (≈ 0.154 µM). The molecule also gave an MIC50 (Human rhinovirus sp., 72 h) of 0.116 mg/L (≈ 0.325 µM).

`CN=c1[nH]c(-c2cc(C)c(OCCCc3cc(C)no3)c(C)c2)no1` [Example 18, 5-{3-[2,6-Dimethyl-4-(5-methylimino-4,5-dihydro-1,2,4-oxadiazol-3-yl)phenoxy]propyl}-3-methylisoxazole]: the MIC80 came out at 0.128 mg/L (≈ 0.374 µM). Further, the MIC50 (Human rhinovirus sp., 72 h) was found to be 0.325 mg/L (≈ 0.949 µM).

`Cc1cc(CCCOc2c(C)cc(-c3noc(N(C)C)n3)cc2C)on1` [Example 19, 5-{3-[2,6-Dimethyl-4-(5-dimethylamino-1,2,4-oxadiazol-3-yl)-phenoxy]propyl}-3-methylisoxazole]: the MIC80 turned out to be 0.085 mg/L (≈ 0.238 µM). The molecule also yielded an MIC50 (Human rhinovirus sp., 72 h) of 0.285 mg/L (≈ 0.8 µM).

The molecule `COCc1cc(CCCOc2c(C)cc(-c3noc(C(F)(F)F)n3)cc2C)on1` [Example 21, 5-{3-[2,6-Dimethyl-4-(5-trifluoromethyl-1,2,4-oxadiazol-3-yl)phenoxy]propyl}-3-(methoxymethyl) -isoxazole] came in with an MIC80 of 0.0575 mg/L (≈ 0.14 µM). Moreover, where the note is “Human rhinovirus sp., 72 h”, the MIC50 was found to be 1.56 mg/L (≈ 3.8 µM).

Molecule `CCOCc1cc(CCCOc2c(C)cc(-c3noc(C(F)(F)F)n3)cc2C)on1` [Example 22, 5-{3-[2,6-Dimethyl-4-(5-trifluoromethyl-1,2,4-oxadiazol-3-yl)phenoxy]propyl}-3-(ethoxymethyl)-isoxazole] had an MIC80 of 0.087 mg/L (≈ 0.205 µM). Besides, the MIC50 (Human rhinovirus sp., 72 h) came to 0.729 mg/L (≈ 1.71 µM).

Take `Cc1cc(-c2noc(C(F)(F)F)n2)cc(C)c1OCCCc1cc(C2CC2)no1` [Example 23, 3-Cyclopropyl-5-{3-[2,6-dimethyl-4-(5-trifluoromethyl-1,2,4-oxadiazol-3-yl)phenoxy]propyl}-isoxazole]: the MIC80 stood at 0.204 mg/L (≈ 0.501 µM). Further, the MIC50 (Human rhinovirus sp., 72 h) was 0.625 mg/L (≈ 1.53 µM).

In turn, `CCc1cc(CCCOc2c(C)cc(-c3noc(C4CC4)n3)cc2C)on1` [Example 25, 5-{3-[4-(5-Cyclopropyl-1,2,4-oxadiazol-3-yl) -2,6-dimethylphenoxy]propyl}-3-ethylisoxazole] gave an MIC80 of 0.085 mg/L (≈ 0.231 µM). For the same molecule, the MIC50 (Human rhinovirus sp., 72 h) amounted to 0.312 mg/L (≈ 0.849 µM).

`COCc1cc(CCCOc2c(C)cc(-c3noc(C4CC4)n3)cc2C)on1` [Example 26]: the MIC80 worked out at 0.038 mg/L (≈ 0.0991 µM). The same molecule yielded an MIC50 (Human rhinovirus sp., 72 h) of 0.183 mg/L (≈ 0.477 µM).

`Cc1cc(-c2noc(C3CC3)n2)cc(C)c1OCCCc1cc(C2CC2)no1` [Example 27] showed an MIC80 of 0.087 mg/L (≈ 0.229 µM). The same molecule showed an MIC50 (Human rhinovirus sp., 72 h) of 0.142 mg/L (≈ 0.374 µM).

`CCc1cc(CCCOc2c(C)cc(-c3noc(C(F)(F)F)n3)cc2C)on1` [Example 28c, 5-{3-[2,6-Dimethyl-4-(5-trifluoromethyl-1,2,4-oxadiazol-3-yl)phenoxy]propyl}-3-ethylisoxazole] displayed an MIC80 of 0.119 mg/L (≈ 0.301 µM). This molecule also had an MIC50 (Human rhinovirus sp., 72 h) of 0.278 mg/L (≈ 0.703 µM).
